What was measured:
Male NMRI mice = assay: Mouse tetrad model (in-vivo bioassay for cannabinoid activity: hot plate, hypothermia, catalepsy, sedation); conditions: 5 mg/kg i.v.
Excerpt: II. In-vivo bioassay system for determination of cannabinoid activity
Substances with affinity for cannabinoid receptors are known to produce a wide range of pharmacological effects. It is also known that intravenous administration of a substance with affinity for cannabinoid receptors in mice produces analgesia , hypothermia, sedation and catalepsy. Individually, none of these effects can be considered as proof that a tested substance has affinity for cannabinoid-receptors, since all of these effects are common for various classes of centrally active agents. However, substances, which show all of these effects, i.e. substances that are active in this so-called tetrad model are considered to have affinity for the cannabinoid receptors. It has further been shown that cannabinoid receptor antagonists are higly effective in blocking the effects of a cannabinoid agonist in the mouse tetrad model.
The tetrad model is described, for example, in the publication of A. C. Howlett et al, International Union of Pharmacology XXVII. Classification of Cannabinoid Receptors, Pharmacol Rev 54, 161-202 , 2002 and David R. Compton et al., "In-vivo Characterization of a Specific Cannabinoid Receptor Antagonist (SR141716A) :Inhibition of Tetrahydrocannbinol- induced Responses and Apparent Agonist Activity", J. Pharmacol. Exp. Ther. 277 , 2, 586-594, 1996. […]
Before testing in the behavioral procedures given below, mice are acclimatized to the experimental setting. Pre-Treatment control values are determined for analgesia hot plate latency (in seconds), rectal temperature, sedation and catalepsy.
In order to determine the agonistic activty of the substance to be tested, the mice are injected intravenously with the substance to be tested or the vehicle alone. 15 minutes after injection, latency in hot plate analgesia is measured.
Rectal temperature, sedation and catalepsy are measured 20 minutes after injection.
In order to determine the antagonistic activity the identical procedure is used as for the determination of the agonistic effects, but with the difference that the substance to be evaluated for its antagonistic activity is injectected 5 minutes before the intravenous injection of 1.25 mg/kg Win-55,212 a known cannabinoid-receptor agonist.
The hot plate analgesia is determined according to the method described in Woolfe D. et al. "The evaluation of analgesic action of pethidine hydrochloride (Demerol)", J. Pharmacol. Exp. Ther. 80, 300-307,1944.
The mice are placed on a hot plate (Harvard Analgesimeter) at 55 ± 0.5 °C until they show a painful sensation by licking their paws or jumping and the time for these sensations to occur is recorded. This reading is considered the basal value (B). […]
The degree of analgesia is calculated from the formula : […]

Herg channel = Herg channel (Homo sapiens, UniProt Q12809); assay: Herg channel affinity; type: binding; conditions: general statement, no method or data given
Herg channel, sequence (Q12809 whole entry): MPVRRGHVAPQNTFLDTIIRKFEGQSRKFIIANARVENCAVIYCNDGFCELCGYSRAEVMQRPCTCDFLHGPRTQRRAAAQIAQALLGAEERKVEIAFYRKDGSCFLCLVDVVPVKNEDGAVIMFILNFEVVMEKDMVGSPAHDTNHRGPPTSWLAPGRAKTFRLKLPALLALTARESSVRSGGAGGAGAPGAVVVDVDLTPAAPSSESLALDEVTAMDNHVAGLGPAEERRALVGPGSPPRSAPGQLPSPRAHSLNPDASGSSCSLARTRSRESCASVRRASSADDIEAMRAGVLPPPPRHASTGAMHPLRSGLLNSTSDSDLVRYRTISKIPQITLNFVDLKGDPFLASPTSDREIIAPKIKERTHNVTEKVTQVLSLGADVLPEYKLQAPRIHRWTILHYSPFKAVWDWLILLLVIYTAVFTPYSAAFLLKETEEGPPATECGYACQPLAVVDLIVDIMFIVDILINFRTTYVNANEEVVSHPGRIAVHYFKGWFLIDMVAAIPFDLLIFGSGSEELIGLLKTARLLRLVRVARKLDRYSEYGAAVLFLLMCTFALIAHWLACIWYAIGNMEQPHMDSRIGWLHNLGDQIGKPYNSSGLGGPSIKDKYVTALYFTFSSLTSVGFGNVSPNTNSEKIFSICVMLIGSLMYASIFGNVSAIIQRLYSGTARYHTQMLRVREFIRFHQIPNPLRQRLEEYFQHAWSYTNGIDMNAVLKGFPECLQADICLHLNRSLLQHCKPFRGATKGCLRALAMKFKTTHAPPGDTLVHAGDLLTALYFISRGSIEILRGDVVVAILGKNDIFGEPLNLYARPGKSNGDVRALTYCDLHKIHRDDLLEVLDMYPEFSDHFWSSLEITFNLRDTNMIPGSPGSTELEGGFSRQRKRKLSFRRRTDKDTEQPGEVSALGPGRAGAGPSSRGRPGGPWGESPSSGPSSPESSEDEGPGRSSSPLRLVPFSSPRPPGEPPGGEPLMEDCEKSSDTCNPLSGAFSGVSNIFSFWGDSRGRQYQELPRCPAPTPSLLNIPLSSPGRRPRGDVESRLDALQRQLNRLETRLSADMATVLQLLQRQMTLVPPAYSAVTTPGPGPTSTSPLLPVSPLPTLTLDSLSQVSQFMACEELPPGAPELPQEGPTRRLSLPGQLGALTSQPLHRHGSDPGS

SMILES	Agonistic effect A: Hot-Plate test (Male NMRI mice)	Agonistic effect B: Hypothermia (Male NMRI mice)	Agonistic effect C: Catalepsy (Male NMRI mice)	Agonistic effect D: Sedation (Male NMRI mice)	Herg channel affinity (Herg channel)
O=C(NN1CCCCC1)C1=NN(c2ccc(Cl)cc2Cl)C(c2ccc(Cl)cc2)C1 (centres unmarked) [Example 1, N-piperidinyl-5-(4-chlorophenyl)-1-(2,4-dichlorophenyl)-4,5-dihydro-1H-pyrazole-3-carboxamide]	0	0	0	0	
O=C(NN1CCCCC1)C1=NN(c2ccc(Cl)cc2Cl)C(c2ccc(Cl)cc2)C1 (stereo not drawn) [β-Polymorph, β-Polymorph of N-piperidinyl-5-(4-chlorophenyl)-1-(2,4-dichlorophenyl)-4,5-dihydro-1H-pyrazole-3-carboxamide]					relatively weak

From EP1757588A1, “Polymorph of N-Piperidinyl-5-(4-chlorophenyl)-1-(2,4-dichlorophenyl)-4,5-dihydro-1H-pyrazole-3-carboxamide and its use as a cannabinoid receptor modulator” (LABORATORIOS DEL DR. ESTEVE, S.A., priority 2005, dated 2007)
